The assay concerns HEK 293F cells. The assay can be described thus: rAAV-FVIII vector production by PEI-transfected HEK 293F cells with enhancing agents, vector genome titer by Q-PCR. The format is cell-based, human. On the procedure:
Cell Culture: FreeStyle™ 293F (HEK 293F) cells purchased from Thermo Fisher Scientific (R79007) were cultured in FreeStyle™ F17 (F17) expression medium (Thermo Fisher Scientific, A1383501) supplemented with 1× GlutaMAX™ (Thermo Fisher Scientific, 35050-061) and 1× Antibiotic-antimycotic (Thermo Fisher Scientific, 15240). Cells were cultured in spinner flasks (Corning, 3152 or 3153), shake flask (Corning 431143, or 431145) or bioreactors. For spinner/shake flask, cells were cultured at 37° C. incubator with 170 rpm agitation and a humidified atmosphere of 8% CO2; for bioreactors (Eppendorf, DASGIP Parallel Bioreactor system, glass vessels and single use vessels), cell culture was controlled by programed parameters, (DO 40%, pH 7.2, agitation at 130 rpm, 150 rpm or 170 rpm). Typically, cells were seeded at 0.25-0.5×10^6/mL, subcultured every 2-3 days by adding fresh cell culture medium when cell density reached approximately 2-3×10^6/mL. Cell density and viability were determined using a Vi-cell™ XR cell viability Analyzer (Beckman Coulter).
Plasmids: Three plasmids were used to produce recombinant adeno-associated viral vectors (rAAV): 1) Transgene plasmid containing hFVIII flanked by ITRs, 2) A packaging plasmid containing rep and cap genes, 3) An adenoviral helper plasmid containing adenovirus E2, E4 and VARNA genes. All plasmids were purchased from and manufactured by Aldevron.
Preparation of PEI solutions: Linear polyethylenimine (PEI) “Max” 40 KDa (Polysciences, 24765-2, hydrochloride salt of the linear PEI 25 KDa) was used as transfection reagent. For transfection optimization studies, PEI “Max” was dissolved in 5 mM Tris to make a 0.5 mg/mL solution and the solution was adjusted to different pH, including pH7.0, 7.1, 7.2, 7.3, 7.4, 7.6, 7.8, or 8.0. After several studies, PEI solution at pH 7.1 was selected for all studies if not specified because of the best transfection and rAAV production.
Using enhancing agents in PEI-mediated transfection: The potential transfection enhancing agents evaluated for their effect on transfection and rAAV production were enhancer 1 and 2 in ExpiFectamine™ 293 Transfection Kit (Thermo Fisher Scientific, A14525), P3000 reagent in Lipofectamine® 3000 Transfection Kit (Thermo Fisher Scientific, L3000015), enhancer in Effectene™ Transfection Reagent Kit (Qiagen, 301427). Also studied were a variety of compounds including valproic acid, etoposide, teniposide, siomycin A and vorinostat to test their effectiveness on PEI cell transfection and rAAV production.
HEK 293F cells were grown in F17 medium plus 1× GlutaMAX™ Supplement and 1× Antibiotic-antimycotic in spinner flasks or shake flasks. The day before transfection, cells were seeded at 0.5-2×10^6 cells/mL by adding fresh medium. After 24 hr, cells were transfected at a cell density of 1-4×10^6 cells/mL. Three plasmids for transfection, hFVIII, Rep/cap, Ad2 helper, were used at a molar ratio of 1:1:1, 0.5:1:1 and 1:2:2, and at weight ratio of 0.75:0.75:0.75, 1:1:1 and 1.5:1.5:1.5. The total DNA amount used for transfection was from 0.5 to 4.2 μg per mL of cell culture volume. PEI/DNA complex was prepared with different weight ratios of PEI and DNA, at 1:1, 1.5:1, 2:1, 2.5:1 and 3:1, incubated at room temperature for 1, 5, 10, 15, 20, 25 and 30 minutes, then the DNA/PEI complexes were added to the cell culture. Free PEI (without DNA) from 0.5 to 5.6 μg/mL was added to the cell culture immediately after DNA/PEI complexes. Enhancing agents were added directly to the cells at the time of transfection or 24 hr before transfection or 16-18 hr after transfection. Different amounts of enhancing agents were studied. Samples, including cells and cell culture media, were taken at 48 and 72 hr post transfection for cell count and cell viability and cell culture was harvested at 72 hr post transfection. […]

Consider `CCCC(CCC)C(=O)O` [valproic acid], for which the “rAAV vector production, fold higher than in the absence of valproic acid” value (2 mM at transfection, spinner flask, 1.2 μg/mL DNA, PEI/DNA 2:1, 1.5 μg/mL free PEI, FIG. 7) amounted to 10 fold. Further, the “AAV vector production at increased valproic acid concentrations” value (1L bioreactor culture, 4 mM or higher, such as 5-8 mM, FIG. 8) is “improved”. Also, the “AAV vector production, fold higher compared with 2 mM of valproic acid” value (>4 mM (up to 8 mM) at transfection, 1 L bioreactor, PEI/DNA 2.5, FIG. 8) is listed as 1.2-1.8 fold. In addition, where the note is “added at transfection, PEI-mediated transfection”, the “effect on rAAV productivity (compound screen)” value is listed as “significantly increased”. The “rAAV-FVIII vector titer, fold increase compared to that without any enhancers” value (optimized PEI-mediated transfection, serum-free suspension culture, 0.25-10 mM tested, FIG. 7) is “around 10 fold”. The “rAAV productivity level compared with enhancer 1 and 2” value (optimized PEI-mediated transfection, serum-free suspension culture, FIG. 7) is reported as “same rAAV productivity level or higher”. For the same compound, the “rAAV vector productivity, fold higher than the currently reported production protocol using similar technologies” value (used alone in the optimized PEI-based transfection method) is “about 10 fold”.
